Measurements published in publication PMC6641592, “Deciphering Design Principles of Förster Resonance Energy Transfer-Based Protease Substrates: Thermolysin-Like Protease from Geobacillus stearothermophilus as a Test Case” (ACS Omega, 2018).
Read-outs that look alike come from different tables or passages of the source. AF647 = Alexa Fluor 647 (maleimide); CF = 5,6-carboxyfluorescein; Cy5 = Cy5 (maleimide)

Assays:
TLP-ste (C288L/N181C) = TLP-ste (C288L/N181C) (Geobacillus stearothermophilus, UniProt P06874, C520L/N413C); conditions: for Km / vmax: Michaelis-Menten fit, mean ± SD, triplicate; for vmax: MOPS pH 7.4, 10% DMSO; for kcat/KM: calculated from kcat and KM; for increase of kcat with peptide length: 8aa substrate relative to 4aa substrate with the same acceptor
[1] = after complete hydrolysis with 1 nM TLP-ste, >16 h room temperature; MOPS buffer, 10% DMSO; λex 450/λem 520 nm
TLP-ste = TLP-ste (Geobacillus stearothermophilus, UniProt P06874, C520L/N413C); conditions: product 0–20 μM; substrates 8aa-Cy5 and 8aa-AF647 0–2 μM; triplicate
[2] = test system: CC(C)C[C@H](NC(=O)CNC(=O)C=Cc1ccco1)C(N)=O; test: purified protein, by the assay type; conditions: other: enzyme preparation TLP-ste (C288L/N181C)
[3] = biological target: thermolysin-like protease (TLP-ste) from Geobacillus stearothermophilus, C288L/N181C (Geobacillus stearothermophilus)
[4] = corrected for IFE and FRET efficiency, 1 nM TLP-ste, 20 mM MOPS pH 7.4, 5 mM CaCl2, 10% DMSO, 30 °C, donor λex 490/λem 520 nm
[5] = corrected for IFE and FRET efficiency, 1 nM TLP-ste, 30 °C
[6] = corrected for IFE and FRET efficiency, vmax divided by enzyme concentration (1 nM)
[7] = correction: FRET efficiency only
[8] = correction: FRET efficiency only, vmax divided by enzyme concentration
[9] = correction: IFE only, vmax divided by enzyme concentration
[10] = correction: none, vmax divided by enzyme concentration

KM of hydrolysis by 1 nM TLP-ste (Michaelis-Menten fit, donor fluorescence, corrected for IFE and FRET efficiency; 30 °C, MOPS pH 7.4, 10% DMSO) [3] [μM] | Molecule | Km (TLP-ste (C288L/N181C); [4]) [µM] | vmax (TLP-ste (C288L/N181C); [5]) | kcat (TLP-ste (C288L/N181C); [6]) [s^–1] | Km (TLP-ste (C288L/N181C); [7]) [µM] | kcat/KM (TLP-ste (C288L/N181C); [7]) [M⁻¹ s⁻¹] | kcat (TLP-ste (C288L/N181C); [8]) [s⁻¹] | kcat/KM (TLP-ste (C288L/N181C); correction: IFE only) [M⁻¹ s⁻¹] | kcat (TLP-ste (C288L/N181C); [9]) [s⁻¹] | Km (TLP-ste (C288L/N181C); correction: none) [µM] | kcat/KM (TLP-ste (C288L/N181C); correction: none) [M⁻¹ s⁻¹] | kcat (TLP-ste (C288L/N181C); [10]) [s⁻¹] | other results
– | CF-PAGLAC(AF674)-NH2 [4aa-AF647] | 53.3 ± 33.9 | 7.0 ± 3.8 ×10^–4 μM s^–1 | 0.70 | 14.3 ± 4 | 14000 | 0.20 | 12900 | 0.69 | 14.3 ± 4 | 13200 | 0.19 | –
– | CF-PAGLAC(Cy5)-NH2 [4aa-Cy5] | 2.4 ± 1.9 | 3.7 ± 1.6 ×10^–4 μM s^–1 | 0.37 | 1.6 ± 1.3 | 175000 | 0.28 | 145800 | 0.35 | 1.6 ± 1.3 | 162500 | 0.26 | concentration of hydrolyzed peptide above which fluorescence plateaus or decreases (cleaved products form aggregates) [1]: 2500 nM
– | CF-PSVAGLAGGC(AF647)-NH2 [8aa-AF647] | 77.6 ± 38.5 | 57.0 ± 27.0 ×10^–4 μM s^–1 | 5.70 | 17 ± 4.6 | 75900 | 1.29 | 70500 | 5.47 | 17 ± 4.6 | 72900 | 1.24 | increase of kcat with peptide length (TLP-ste (C288L/N181C)): 8 fold
– | CF-PSVAGLAGGC(Cy5)-NH2 [8aa-Cy5] | 17.6 ± 11.1 | 78.2 ± 48.2 ×10^–4 μM s^–1 | 7.82 | 8.2 ± 3.9 | 454900 | 3.73 | 426100 | 7.50 | 8.2 ± 3.9 | 436600 | 3.58 | increase of kcat with peptide length (TLP-ste (C288L/N181C)): 21 fold
– | CF-PVAGLAGC(Cy5)-NH2 [6aa-Cy5] | 11.6 ± 13 | 29.6 ± 26.6 ×10^–4 μM s^–1 | 2.96 | 6.9 ± 6.6 | 271000 | 1.87 | 247400 | 2.87 | 6.9 ± 6.6 | 262300 | 1.81 | concentration of hydrolyzed peptide above which fluorescence plateaus or decreases (cleaved products form aggregates) [1]: 2500 nM
– | H-LAGGC(AF647)-NH2 [AF647-carrying product] | – | – | – | – | – | – | – | – | – | – | – | relative activity of TLP-ste in the presence of product (TLP-ste): relative activity decreases
– | TLP-ste (C288L/N181C) (Geobacillus stearothermophilus; C520L/N413C) | – | – | – | – | – | – | – | – | – | – | – | Km [2]: 7000 µM; kcat [2]: 14 s^–1
2.4 | {CF}-PAGLAC(Cy5)-NH2 [4aa-Cy5, CF-PAGLAC(Cy5)-NH2] | – | – | – | – | – | – | – | – | – | – | – | –
11.6 | {CF}-PVAGLAGC(Cy5)-NH2 [6aa-Cy5, CF-PVAGLAGC(Cy5)-NH2] | – | – | – | – | – | – | – | – | – | – | – | –
17.6 | {CF}-PSVAGLAGGC(Cy5)-NH2 [8aa-Cy5, CF-…(Cy5)-NH2] | – | – | – | – | – | – | – | – | – | – | – | –
77.6 | {CF}-PSVAGLAGGC(AF647)-NH2 [8aa-AF647, CF-…(AF647)-NH2] | – | – | – | – | – | – | – | – | – | – | – | –
53.3 | {CF}-PAGLAC(AF647)-NH2 [4aa-AF647, CF-PAGLAC(AF647)-NH2] | – | – | – | – | – | – | – | – | – | – | – | –
